From patent publication US5652262A, “Hydroxamic acid derivatives as metalloproteinase inhibitors” (British Biotech Pharmaceutical, Ltd., priority 1993, dated 1997)

How the values were obtained:
[1] = molecular target: T1, collagenase (Homo sapiens, UniProt P03956); test: Inhibition of collagenase (procedure of Cawston and Barrett, acetylated 14C collagen); format: biochemical; conditions: 37°, 16 hours, pH 7.5
T1 sequence (P03956 100-469): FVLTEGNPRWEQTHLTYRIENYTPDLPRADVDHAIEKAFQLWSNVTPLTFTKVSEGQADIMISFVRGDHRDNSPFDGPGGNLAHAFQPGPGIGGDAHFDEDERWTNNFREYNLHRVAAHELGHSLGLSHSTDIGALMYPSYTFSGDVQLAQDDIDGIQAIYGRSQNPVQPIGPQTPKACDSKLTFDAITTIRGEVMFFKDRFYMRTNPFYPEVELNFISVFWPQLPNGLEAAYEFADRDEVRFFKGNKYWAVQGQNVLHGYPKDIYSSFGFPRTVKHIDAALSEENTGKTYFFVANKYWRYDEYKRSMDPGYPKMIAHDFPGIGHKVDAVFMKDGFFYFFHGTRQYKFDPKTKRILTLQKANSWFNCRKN
Description: The potency of compounds of the invention as inhibitors of collagenase was determined by the procedure of Cawston and Barrett, (Anal. Biochem., 99, 340-345, 1979), hereby incorporated by reference, whereby a 1 mM solution of the compound being tested, or a dilution thereof, was incubated at 37° for 16 hours with collagen and collagenase (buffered with 25 mM Hepes, pH 7.5 containing 5 mM CaCl2, 0.05% Brij 35 and 0.02% NaN3). The collagen was acetylated ^14 C collagen prepared by the method of Cawston and Murphy, (Methods in Enzymology, 80, 711, 1981), hereby incorporated by reference. The samples were centrifuged to sediment undigested collagen, and an aliquot of the radioactive supernatant removed for assay on a scintillation counter as a measure of hydrolysis.

[2] = Systemic blood concentration of inhibitor over 24 hours after oral dosing in rats, by collagenase inhibitory activity of blood extracts; format: in vivo, rat; conditions: 10 mg/kg in PBS/0.1% Tween 80 by gavage, male rats, 0.5-24 hours, drug plus any active metabolites, collagenase assay
Description: The biological efficacy of a compound of the invention in chronic disease states is a function of the systemic blood concentration maintained over time, and its intrinsic potency. These factors can be quantified as IC50.hrs (24 hrs), which parameter is defined as the total number of IC50 s in the blood over the 24 hours post dosing, the IC50 being defined as the concentration of the compound that reduces collagenase activity to 50% of its normal value.:
Test compounds were administered at 10 mg/kg in PBS/0.1% Tween 80 by gavage to 6 male rats (300 g) per treatment group. Blood samples were removed by tail venepuncture at 0.5, 1.0, 2.0, 6.0 and 24 hours post administration. 0.5 ml of blood was placed into 4.5 ml tubes containing 0.1 ml acid citrate dextrose (ACD) as anti-coagulant. For extraction, 3 ml methanol was added and the precipitated blood pelletted by centrifugation (30 min at 3000 rpm). A 2 ml aliquot of supernatant was removed and dried by lyophilisation. The extract was redissolved in 200 μl DMSO and a 10 μl aliquot assayed for collagenase inhibitory activity. The inhibitory activity in the extracts was determined using the collagenase assay described in Biological Example A above, and the concentration of inhibitor (that is drug plus any active metabolites) obtained by comparison with standard curves. […]

[3] = tested on: rat adjuvant arthritis model; test: Rat adjuvant arthritis model, hindpaw oedema volume; format: in vivo; conditions: male Lewis rats, two doses of 10 mg/kg orally each day, day 13 to day 17
Description: The compound of Example 1 was tested in a rat adjuvant arthritis model.
Adjuvant arthritis was produced in male Lewis rats (Charles River) by a single intradermal injection of 0.75 mg of M. butyricum in light parafin oil (Freund's complete adjuvant) into the base of the tail. The "secondary" lesion occurs after a delay of 10 days, and is characterised by inflammation of the hindpaws. Hindpaw oedema volumes were measured plethysmographically by water displacement. Animals in the treated groups received two doses of 10 mg/kg of the test compound in PBS/0.1% Tween orally, each day, from day 13 to day 17. Results are reported as paw volume change from the volume measured on day 13.

[4] = molecular target: stromelysin (Homo sapiens, UniProt P08254); test: Inhibition of stromelysin (procedure of Cawston et al, acetylated 14C casein); format: biochemical; conditions: 37°, 16 hours, pH 7.5
Description: The potency of compounds of the invention as inhibitors of stromelysin was determined by the procedure of Cawston et al, (Biochem. J., 195, 159-165, 1981), hereby incorporated by reference, whereby a 1 mM solution of the compound being tested, or a dilution thereof, was incubated at 37° for 16 hours with stromelysin and ^14 C acetylate casein (buffered with 25 mM Hepes, pH 7.5 containing 5 mM CaCl2, 0.05% Brij 35 and 0.02% NaN3). The casein was acetylated ^14 C casein prepared by the method of Cawston et al (ibid).

Chain of stromelysin (P08254 100-477): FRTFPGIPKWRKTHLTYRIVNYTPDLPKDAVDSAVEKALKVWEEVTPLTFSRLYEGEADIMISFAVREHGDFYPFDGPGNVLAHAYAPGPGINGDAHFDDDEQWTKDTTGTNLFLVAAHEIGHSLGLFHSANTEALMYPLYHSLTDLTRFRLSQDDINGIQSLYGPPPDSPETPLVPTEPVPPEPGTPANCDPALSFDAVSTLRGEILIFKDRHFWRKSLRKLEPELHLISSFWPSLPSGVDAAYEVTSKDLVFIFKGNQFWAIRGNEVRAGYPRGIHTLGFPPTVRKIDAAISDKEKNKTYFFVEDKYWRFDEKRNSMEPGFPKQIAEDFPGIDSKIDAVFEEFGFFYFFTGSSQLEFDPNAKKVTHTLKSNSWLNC

| IC50 [1] | AUC (IC50.hrs (24hrs)) [2] | IC50 [4] | SMILES | paw volume change, Day 17 (% relative to day 13) ([3]; Day 17) | paw volume change, Day 20 (% relative to day 13) ([3]; Day 20) |
| --- | --- | --- | --- | --- | --- |
| 10 nM | 233 IC50.hrs |  | C=CC[C@H](C(=O)NO)[C@@H](CC(C)C)C(=O)N[C@@H](Cc1ccccc1)C(=O)NC [Example 1, 3R-(2-Phenyl-1S-methylcarbamoyl-ethylcarbamoyl)-5-methyl-2S-2-propenyl-hexanohydroxamic acid] | 52% | 65% |
| 3 to 4 nM | 970 IC50.hrs | 80 nM | C=CC[C@H](C(=O)NO)[C@@H](CC(C)C)C(=O)N[C@H](C(=O)NC)C(C)(C)C [Example 5, 3R-(2,2-Dimethyl-1S-methylcarbamoyl-propylcarbamoyl)-5-methyl-2S-2-propenyl-hexanohydroxamic acid] |  |  |
| 10 nM |  | 5 nM | C=CC[C@H](C(=O)NO)[C@@H](CC(C)C)C(=O)N[C@@H](Cc1ccccc1)C(=O)NCc1ccccc1 [Example 7, 3R-(2-Phenyl-1S-phenylmethylcarbamoyl-ethylcarbamoyl)-5-methyl-2S-2-propenyl-hexanohydroxamic acid] |  |  |
